Data set [1] deals with presynaptic α-adrenoceptors. Put plainly: Effect on presynaptic α-adrenoceptors: inhibition of electrically triggered tachycardia in the spinal rat. The class given is in vivo. The conditions noted are these: dosage which inhibits electrically induced tachycardia by 50%, i.v. From the text: 2. Effect on presynaptic α-adrenoceptors: Inhibition of electrically triggered tachycardia Method: At the adrenergic nerve ending there is an autoregulating system for the relase of noradrenaline. The stimulation of presynaptic α-adrenoreceptors has an inhibiting effect on the release of noradrenaline and thus restricts adrenergic neurotransmission. Accordingly, if these "feedback receptors" are stimulated, the effect of a given adrenergic stimulation on the responding organ can be attenuated. In the electrically stimulated spinal rat, the tachycardia induced electrically in the heart is attenuated by substances with a presynaptic α-mimetic activity. Description of the test: Male rats weighing from 350 to 400 g were anesthetized with pentobarbital (50 mg/kg i.p.), vagotomized, treated with atropine (1 mg/kg s.c.) and fitted with a tracheal cannula. After enucleation of one eye, the orbits were pierced, the brain was destroyed, and a metal rod was pushed through the vertebral canal. The animals were artificially ventilated and pre-treated with gallamine (4 mg/kg i.v.). The metal rod used was 2.5 mm in diameter and was insulated (stove-enamelled). […] The blood pressure was measured at an A. carotis by means of an electromechanical pressure transducer. The pulse wave triggered a tachograph which continuously recorded the heart rate. Both signals were recorded on a multi-channel recorder.

For data set [2], the system named is intact anesthetized rat. Put plainly: Effect on blood pressure and heart rate in the intact anesthetized rat after intravenous injection. It counts as in vivo. The conditions noted are these: 3 mg/kg i.v. How it is done:
1. Effect on blood pressure and heart rate Method: Changes in circulation after intravenous injection of the test substance were recorded in the intact anesthetized rat. Male rats weighing 200 g were anesthetized with pentobarbital (50 mg/kg i.p.). The animals breathed spontaneously through a tracheal cannula secured in position. The blood pressure was measured at an A. carotis using an electromechanical pressure transducer; the pulse wave triggered a tachograph which recorded the heart rate continuously. Both parameters were recorded on the polygraph. The test substance was injected into a V. jugularis through a catheter. The test substances, when administered at a dosage of 3 mg/kg i.v., produced a brief initial increase in blood pressure followed by a longer-lasting reduction in pressure.

A short description of data set [3]: Acute toxicity in mice after oral or intravenous administration. The conditions noted are these: mouse, in vivo, observation period 14 days. How it is done: The acute toxicity was determined in mice after oral or intravenous administration (observation period: 14 days): […]
In data set [4] the test system is postsynaptic α-adrenoceptors. As to the kind of experiment: Effect on postsynaptic α-adrenoceptors: increase in blood pressure in the spinal rat. The conditions noted are these: dosage which increased arterial blood pressure by 30 mmHg, i.v. It counts as in vivo. How it is done: 3. Effect on postsynaptic α-adrenoceptors: Increase in blood pressure in the spinal rat Method: The increase in blood pressure occurring after the stimulation of postsynaptic α-adrenoreceptors is measured in the spinal rat. Description of test: Male rats weighing from 200 to 250 g were anesthetized (1.2 g/kg of urethane i.p., 1 mg/kg of atropine s.c.). Then the central canal of the spinal cord was opened up. The spinal cord was severed at C1, and the medulla oblongata and the brain were destroyed with a metal probe. The animals were artificially ventilated; a polyethylene catheter was secured in a jugular vein, and the blood pressure was recorded from an A. carotis by means of a Statham element on a Grass polygraph. The dosage (D30) which increased the arterial blood pressure by 30 mmHg was determined.

Data set [5] has as its system intact anesthetized rat. As to the kind of experiment: Effect on blood pressure and heart rate in the intact anesthetized rat after intravenous injection. The class given is in vivo. The conditions noted are these: 1.5 mg/kg i.v.

Counter-ions that a name gives are not always drawn.

As to `CCN1CCc2sc3nc(N)sc3c2CC1.Cl.Cl` [A, 7-ethyl-2-amino-6,7,8,9-tetrahydro-5H-thiazolo[4',5':5,4]thieno[2,3-d]azepine dihydrochloride], in data set [1], the “Inhibition of electrically induced tachycardia, D50” value is reported as 290 μg/kg i.v. Further, in the data set on intact anesthetized rat [2], the “Blood pressure, depressor phase (maximum value)” value (shortened to “Blood pressure, depressor phase”) was -18 mm Hg; the “Blood pressure, pressor phase (maximum value)” value (“Blood pressure, pressor phase” below) is on record as “+52 mm Hg”; the “Lowering of heart rate (maximum value)” value was -90 beats/minute. In data set [3] (intravenous), this compound came in with an LD50 at 336 h of 34 mg/kg. The same compound had an LD50 at 336 h in data set [3] (oral) of 320 mg/kg. In data set [4], the “Blood pressure-increasing activity, D30” value was 145 μg/kg i.v.
Consider `Nc1nc2sc3c(c2s1)CCN(Cc1ccccc1)CC3` [B, 2-amino-7-benzyl-6,7,8,9-tetrahydro-5H-thiazolo[4',5':5,4]thieno[2,3d]azepine], for which, in the data set on intact anesthetized rat [2], the “Blood pressure, depressor phase” value is listed as -25 mm Hg and the “Lowering of heart rate (maximum value)” value is recorded as -95 beats/minute.
Turning to `C=CCN1CCc2sc3nc(N)sc3c2CC1.Cl.Cl` [C, 7-allyl-2-amino-6,7,8,9-tetrahydro-5H-thiazolo[4',5':5,4]thieno[2,3-d]azepine dihydrochloride], in the data set with intact anesthetized rat [2], the “Blood pressure, depressor phase” value was -15 mm Hg; the “Blood pressure, pressor phase” value is “+17 mm Hg”; the “Lowering of heart rate (maximum value)” value is given as -150 beats/minute.
Consider `CC(C)N1CCc2sc3nc(N)sc3c2CC1.Cl.Cl` [Compound D, 2-amino-6,7,8,9-tetrahydro-7-isopropyl-5H-thiazolo[4',5':5,4]thieno[2,3-d]azepine dihydrochloride], for which, in the data set on intact anesthetized rat [2], the “Blood pressure, depressor phase” value was -20 mm Hg; the “Blood pressure, pressor phase” value is “+23 mm Hg”; the “Lowering of heart rate (maximum value)” value is recorded as -78 beats/minute.
As for `CCN1CCc2c(sc3nc(N)sc23)C1` [E, 6-ethyl-2-amino-5,6,7,8-tetrahydro-thiazolo[4',5':5,4]thieno[2,3c]pyridine dihydrochloride], in the data set with intact anesthetized rat [2], the “Blood pressure, depressor phase” value is -29 mm Hg; the “Blood pressure, pressor phase” value was “+30 mm Hg”; the “Lowering of heart rate (maximum value)” value is recorded as -108 beats/minute.
Turning to `CCCN1CCc2c(sc3nc(N)sc23)C1.Cl.Cl` [F, 2-amino-5,6,7,8-tetrahydro-6-propyl-thiazolo[4',5':5,4]thieno[2,3-c]pyridine dihydrochloride], in the data set with intact anesthetized rat [2], the “Blood pressure, depressor phase” value is listed as -12 mm Hg; the “Blood pressure, pressor phase” value is recorded as “+16 mm Hg”; the “Lowering of heart rate (maximum value)” value is on record as -65 beats/minute. Also, the LD50 at 336 h in data set [3] (oral) was greater than 300 mg/kg.
Consider `CN1CCc2c(sc3nc(N)sc23)C1.Cl.Cl` [G, 2-amino-5,6,7,8-tetrahydro-6-methyl-thiazolo[4',5':5,4]thieno[2,3-c]pyridine dihydrochloride], for which, in the data set on intact anesthetized rat [2], the “Blood pressure, depressor phase” value is reported as -30 mm Hg; the “Blood pressure, pressor phase” value was “+46 mm Hg”; the “Lowering of heart rate (maximum value)” value was -95 beats/minute.
Take `Cl.Cl.Nc1nc2sc3c(c2s1)CCNCC3` [H, 2-Amino-6,7,8,9-tetrahydro-5H-thiazolo[4',5':5,4]thieno[2,3-d]azepine dihydrochloride]: the “Blood pressure-increasing activity, D30” value in data set [4] is listed as 0.36 mg/kg i.v. In addition, in the data set on intact anesthetized rat [5], the “Blood pressure, depressor phase” value is listed as -34 mm Hg; the “Blood pressure, pressor phase” value is reported as “+38 mm Hg”; the “Lowering of heart rate (maximum value)” value is -100 beats/minute.
